Test results published in US12661355B2, “Compounds and methods for inducing UCP1 expression” (The Regents of the University of California, priority 2020, dated 2026).

Key:
[1] = test system: immortalized brown adipocytes; test: Cellular respiration (Seahorse) in immortalized brown adipocytes; format: cell-based, mouse; conditions: 10 μM
Procedure: Cellular respiration was measured using a Seahorse XF24 or XF96 analyzer (Agilent) following known protocols Immortalized brown adipocytes were differentiated in 6-well plates and replated in the Seahorse XF24 plates at a density of 50,000 cells per well using trypsin and collagenase type II. Cells were treated with vehicle (DMSO) or compounds for 18-24 h. Oxygen consumption rates were obtained before and after the sequential injection of 0.75 μM oligomycin, 0.5 μM FCCP, and 0.75 μM rotenone/myxothiazol. Results were normalized to total protein. For human white adipocytes, cells were cultured as described above and differentiated in XF96 microplates. DMSO or Z160 (10 μM) was added at day 17 and for 4 days. Oxygen consumption rates were measured before and after the sequential injection of 1 μM oligomycin, 1 μM FCCP, and 0.5 μM rotenone/antimycin A. For these cells, results were normalized to cell count determined by nuclei fluorescent staining with Hoescht staining imaged on Cytation 5 Imaging Reader and analysis with Gen5 software (BioTek). For both mouse and human cell lines, mitochondrial respiration was calculated by subtracting the non-mitochondrial respiration present after the last injection. Uncoupled respiration corresponds to the respiration difference between oligomycin and the last injections. Maximal respiration was determined after FCCP injection.

C57BL/6J male mice = test: Thermogenesis in vivo after subcutaneous injection; conditions: single subcutaneous injection 1.5 mg/kg
Procedure: All mouse studies were conducted in accordance with and approved by the Institutional Animal Research Committee of the University of California, Los Angeles. C57BL/6J male mice were obtained from the Jackson Laboratory. For the drug injection, Z160 (diluted in 100 μl DMSO) was injected subcutaneously, near BAT, at 1.5 mg/kg body weight and compared with vehicle alone. […] Body temperature was obtained with a rectal probe (BAT-12, Physitemp). Aspartate aminotransferase (AST) activity was determined from plasma according to the manufacturer's protocol (MAK055, Sigma).

[2] = test system: immortalized brown adipocytes; test: Global gene expression analysis (microarray, DAVID functional annotation) in immortalized brown adipocytes; format: cell-based, mouse
Procedure: Mouse RNA levels were measured by qPCR according to known methods. Data were normalized to B2m and Tbp reference genes. Human RNA was extracted using an RNA Mini Plus kit (Zymo) and gene expression determined by Taqman assay. The 1-step qPCR was run on a QuantStudio 12K Flex Real Time PCR System (ThermoFisher) using the following protocol: 50° C. for 5 minutes, 95° C. for 20 seconds, 40 cycles of 95° C. for 15 seconds and 60° C. for 60 seconds. Data were normalized to PPIA and PSMB2 reference genes. For global gene expression analysis, RNA isolated from brown adipocytes treated with compounds as indicated (four biological replicates) was hybridized to Illumina mouse Ref 8 V2.0 bead chips at the University of California, Los Angeles Neuroscience Genomics Core as previously described. Data were processed with GenomeStudio V2011.1 using the quantile normalization, background subtraction, and a present call of P<0.05.
To assess the effects of Z160 on global transcription in mouse brown adipocytes, microarray analysis of RNA isolated from immortalized brown adipocytes treated with either vehicle or Z160 was performed. […] The results of the microarray were corroborated using qPCR for representative genes from each electron transport chain complex (FIG. 5B).

[3] = test system: human white adipocyte cell line; test: Cellular respiration in human white adipocytes; format: cell-based; conditions: 10 μM for 4 days
Procedure: Human immortalized brown and white preadipocytes were obtained from Dr. Yu-Hua Tseng (Joslin Diabetes Center, Harvard Medical School, USA). The generation of the two cell lines from human neck adipose tissue biopsies and immortalization was performed as previously described but from a different donor. Cells were cultured in high glucose DMEM supplemented with 10% FBS and antibiotics. Two days after reaching confluence, cells were treated with 30 μM biotin, 500 nM insulin, 17 μM pantothenate, 100 nM dexamethasone, 2 nM 3,3′,5-Triiodo-L-thyronine, 500 μM IBMX, 30 μM indomethacin and 1 μM rosiglitazone, for 12 days. […]
Cellular respiration was measured using a Seahorse XF24 or XF96 analyzer (Agilent) following known protocols Immortalized brown adipocytes were differentiated in 6-well plates and replated in the Seahorse XF24 plates at a density of 50,000 cells per well using trypsin and collagenase type II. […] Oxygen consumption rates were measured before and after the sequential injection of 1 μM oligomycin, 1 μM FCCP, and 0.5 μM rotenone/antimycin A. For these cells, results were normalized to cell count determined by nuclei fluorescent staining with Hoescht staining imaged on Cytation 5 Imaging Reader and analysis with Gen5 software (BioTek). […] Maximal respiration was determined after FCCP injection.

[4] = genes >1.5-fold down-regulated, DAVID
[5] = genes >1.5-fold up-regulated, DAVID

O=C(CSc1nc2ccccc2c(=O)[nH]1)Nc1ccc2c(c1)OCCO2 [AST070, N-(2,3-dihydro-1,4-benzodioxin-6-yl)-2-[(4-oxo-3,4-dihydroquinazolin-2-yl)sulfanyl]acetamide] was tested, and the maximal respiration [1] was “significantly elevated”, the mitochondrial respiration [1] was “increased” and the uncoupled respiration [1] was “increased”.

In the case of COc1ccc(NC(=O)CSc2nc3ccccc3c(=O)[nH]2)c(OC)c1 [Z160], the “Ucp1 mRNA and protein levels in BAT” value (C57BL/6J male mice) is reported as “elevated”, the “expression of genes implicated in mitochondrial function and lipolysis in BAT” value (C57BL/6J male mice) is reported as “enhanced expression” and the plasma glucose levels (C57BL/6J male mice) is reported as 157.6 ± 26.2 mg/dL. The body temperature (C57BL/6J male mice; measured 24 h later) was 38.3 °C, the “increase in body temperature” value (C57BL/6J male mice; measured 24 h later, vs vehicle) was 0.8 °C and the “liver toxicity assessed by circulating aspartate aminotransferase (AST) levels” value (C57BL/6J male mice; plasma) was “No liver toxicity”. For the same compound, the “Genes, GO cellular component Down: Basement membrane” value [2, 4] was 17, the “Genes, GO cellular component Down: Cell surface” value [2, 4] was 45 and the “Genes, GO cellular component Down: Cytoplasm” value [2, 4] was 178. The “Genes, GO cellular component Down: Extracellular exosome” value [2, 4] was 119, the “Genes, GO cellular component Down: Extracellular region” value [2, 4] was 86 and the “Genes, GO cellular component Down: Extracellular space” value [2, 4] was 72. The “Genes, GO cellular component Down: Focal adhesion” value [2, 4] was 25, the “Genes, GO cellular component Down: Proteinaceous extracellular matrix” value [2, 4] was 35 and the “Genes, GO cellular component Up: Mitochondrial inner membrane” value [2, 5] was 27. The “Genes, GO cellular component Up: Mitochondrion” value [2, 5] was 88, the “Ucp1 increase (microarray)” value ([2]; microarray, vs vehicle) was 2.5 fold and the “probes down-regulated by at least 1.5-fold” value ([2]; microarray, vs vehicle) was 504 probes. The “probes up-regulated by at least 1.5-fold” value ([2]; microarray, vs vehicle) was 581 probes, the maximal respiration [3] was “increased” and the “mitochondrial respiration (uncoupled)” value [3] was “increased”. The maximal respiration [1] was “showed the same trend”, the mitochondrial respiration [1] was “increased” and the uncoupled respiration [1] was “increased”.
